Experimental findings from patent US4510158A, “2-Phenylindole derivatives, their use as complement inhibitors” (Sterling Drug Inc., priority 1984, dated 1985) are described below.

What is called IC50 is the concentration that gives 50% inhibition.

The test system of experiment [1] is human complement (C1-C9), classical complement pathway. The experiment can be described thus: Hemolytic molecular titrations of classical complement activity (lysis of sensitized sheep erythrocytes by normal human serum). It counts as biochemical. To be noted: concentration effecting 50% suppression of lysis (Z/Zo=0.5), 37° C., 60 min, read-out: Classical Complement Pathway Inhibition IC50. The protocol:
(§1) The compounds were evaluated in vitro for their inhibition of human complement (C1-C9) using hemolytic molecular titrations, and the reverse passive Arthus reaction (RPAR) in guinea pigs was chosen as a complement mediated model of acute inflammation to be used to identify compounds with in vivo complement inhibitory activity.
Hemolytic molecular titrations of classical complement activity were performed according to Rapp and Borsos [Molecular Basis of Complement Action, Appleton-Century-Crofts, New York, NY, 1970] and complement inhibition assessed according to Hong et al. (J. Immunol. 1979, Vol. 122, 2418). Operationally, the test compound was maintained in the presence of complement during the lytic reaction of sensitized erythrocytes. Equal volumes (0.2 ml) of normal human serum (NHS), diluted in GVB^++ [Mayer, M. M. in Kabat and Mayer's Experimental Immunochemistry, 2nd Ed.; Charles C. Thomas, Springfield, Ill., 1961, p. 133] to effect lysis of Z=1, and test compound at various concentrations were mixed at 0° C. […] EA (0.2 ml of 1.5×10^8 cells/ml) and 1.8 ml of GVB^++ were added to the reaction mixture followed by incubating at 37° C. for 60 min. The extent of lysis was determined spectrophotometrically at 412 nm. The ratio of treated to untreated (Z/Zo) reaction mixtures was determined as a function of test compound concentration.

Experiment [2] concerns reverse passive Arthus reaction (RPAR). The experiment can be described thus: Reverse Passive Arthus Reaction (RPAR) in guinea pigs, complement mediated model of acute inflammation. In kind it is in vivo, guinea pig. The following applies: 80 mg/kg iv, 20 min before elicitation; p = 0.001. As to the method: as §1

Consider “Gold sodium thiomalate [reference compound]”, for which the IC50 in experiment [1] is 1070 ± 90 µM.

On to `O=C(O)C1CC=C(c2c(-c3ccccc3)[nH]c3ccccc23)CC1` (stereo not shown) [Example 1, 4-(2-Phenyl-1H-indol-3-yl)-3-cyclohexene-1-carboxylic acid], for which the IC50 in experiment [1] came out at 135 ± 2 µM. Besides, in experiment [2], the “RPAR % Inhib.” value is on record as 64 ± 7%.

For `O=C(O)c1ccc(-c2c(-c3ccccc3)[nH]c3ccccc23)cc1` [Example 15, 4-(2-Phenyl-1H-indol-3-yl)benzoic acid], the IC50 in experiment [1] was determined as 105 ± 4 µM.
